From ChEMBL document CHEMBL1201862, “PubChem BioAssay data set” (2004)
Calls of active or inactive are those of the source.

Key:
[1] = cells; format: functional, cell-based
[2] = cells; format: functional, cell-based; remark: listed apart in the source
[3] = molecular target: DNA dC->dU-editing enzyme APOBEC-3G (Homo sapiens, UniProt Q9HC16); test: Dose Response confirmation of small molecule APOBEC3G DNA Deaminase Inhibitors via a fluorescence-based single-stranded DNA deaminase assay. [Related pubchem assays (depositor defined):AID493012, AID493028]; format: functional
Chain of DNA dC->dU-editing enzyme APOBEC-3G (Q9HC16 whole entry): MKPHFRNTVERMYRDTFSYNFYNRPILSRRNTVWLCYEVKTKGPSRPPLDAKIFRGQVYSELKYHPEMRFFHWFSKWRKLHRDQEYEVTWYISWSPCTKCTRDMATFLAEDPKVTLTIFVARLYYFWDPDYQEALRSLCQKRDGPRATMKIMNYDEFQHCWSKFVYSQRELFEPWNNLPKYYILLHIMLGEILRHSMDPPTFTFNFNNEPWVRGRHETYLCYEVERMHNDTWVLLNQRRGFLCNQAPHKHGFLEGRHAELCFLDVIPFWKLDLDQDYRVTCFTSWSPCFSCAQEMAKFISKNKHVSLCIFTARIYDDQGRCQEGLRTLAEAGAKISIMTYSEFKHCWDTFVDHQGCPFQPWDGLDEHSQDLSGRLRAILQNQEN

[4] = molecular target: T1, Estrogen receptor (Homo sapiens, UniProt P03372);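 also: potency for inhibiting coactivator peptide recruitment to the receptor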
T1 sequence (P03372 whole entry): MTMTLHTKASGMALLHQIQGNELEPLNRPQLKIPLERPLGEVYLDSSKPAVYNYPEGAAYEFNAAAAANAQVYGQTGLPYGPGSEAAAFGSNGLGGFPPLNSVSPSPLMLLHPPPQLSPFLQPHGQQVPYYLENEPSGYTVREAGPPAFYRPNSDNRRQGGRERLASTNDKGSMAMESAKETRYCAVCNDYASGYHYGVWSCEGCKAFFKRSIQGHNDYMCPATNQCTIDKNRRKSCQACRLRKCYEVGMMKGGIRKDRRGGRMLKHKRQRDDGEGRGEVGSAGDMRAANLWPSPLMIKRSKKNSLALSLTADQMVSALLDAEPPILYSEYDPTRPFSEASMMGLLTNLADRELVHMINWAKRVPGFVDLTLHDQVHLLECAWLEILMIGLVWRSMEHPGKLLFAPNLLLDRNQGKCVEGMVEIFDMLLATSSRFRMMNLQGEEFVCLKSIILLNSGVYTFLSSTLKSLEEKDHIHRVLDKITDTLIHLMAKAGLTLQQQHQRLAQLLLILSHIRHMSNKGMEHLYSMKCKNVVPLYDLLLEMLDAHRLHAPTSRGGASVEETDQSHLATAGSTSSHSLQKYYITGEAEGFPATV

[5] = molecular target: T2, Heat shock factor protein 1 (Mus musculus, UniProt P38532); test: enhancement of HSF1-driven luciferase signal – cell-based, NIH3T3, luminescence, dose retest, confirmation (AID 435004); format: functional;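 also: stress induced by proteasome inhibitor MG132 added 30 min after compound; luciferase reporter driven by HSF1 response element in NIH3T3 cells; actives raise luminescence as potentiators of the MG132 stress response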
T2 sequence (P38532 whole entry): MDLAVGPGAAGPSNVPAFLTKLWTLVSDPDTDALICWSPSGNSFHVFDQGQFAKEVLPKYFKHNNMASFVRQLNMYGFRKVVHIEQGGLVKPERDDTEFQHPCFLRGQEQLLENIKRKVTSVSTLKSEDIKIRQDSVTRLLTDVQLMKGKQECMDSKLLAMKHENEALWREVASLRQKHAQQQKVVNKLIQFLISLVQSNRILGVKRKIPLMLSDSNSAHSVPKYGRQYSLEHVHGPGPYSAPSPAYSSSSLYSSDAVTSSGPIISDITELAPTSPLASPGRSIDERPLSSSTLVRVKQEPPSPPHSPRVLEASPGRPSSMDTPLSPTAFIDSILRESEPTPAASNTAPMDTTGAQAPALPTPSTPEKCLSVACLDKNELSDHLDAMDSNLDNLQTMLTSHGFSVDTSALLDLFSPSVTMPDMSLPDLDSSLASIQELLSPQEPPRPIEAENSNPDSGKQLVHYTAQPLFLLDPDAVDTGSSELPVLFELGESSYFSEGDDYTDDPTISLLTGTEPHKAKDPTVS

[6] = intracellular Trypanosoma cruzi inhibitors in host cells – cell-based, plate reader, cherry-pick samples, set 3, dose response (AID 651818); format: functional;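 also: compounds incubated with infected cells for about four days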
[7] = molecular target: T3, Ubiquitin-conjugating enzyme E2 N (Homo sapiens, UniProt P61088); format: functional;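 also: Dose-response confirmation in a TR-FRET assay detecting UBC13-driven polyubiquitin chain formation, inhibition measured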
T3 sequence (P61088 whole entry): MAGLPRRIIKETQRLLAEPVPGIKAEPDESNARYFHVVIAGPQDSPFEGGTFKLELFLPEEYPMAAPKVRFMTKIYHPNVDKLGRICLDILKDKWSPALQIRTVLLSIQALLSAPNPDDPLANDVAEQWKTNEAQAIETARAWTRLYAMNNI

[8] = molecular target: T4, Coagulation factor XII (Homo sapiens, UniProt P00748); format: functional;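 also: activated factor XIIa alpha cleaving a fluorogenic AMC peptide substrate; inhibitor potency from loss of enzyme activity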
T4 sequence (P00748 whole entry): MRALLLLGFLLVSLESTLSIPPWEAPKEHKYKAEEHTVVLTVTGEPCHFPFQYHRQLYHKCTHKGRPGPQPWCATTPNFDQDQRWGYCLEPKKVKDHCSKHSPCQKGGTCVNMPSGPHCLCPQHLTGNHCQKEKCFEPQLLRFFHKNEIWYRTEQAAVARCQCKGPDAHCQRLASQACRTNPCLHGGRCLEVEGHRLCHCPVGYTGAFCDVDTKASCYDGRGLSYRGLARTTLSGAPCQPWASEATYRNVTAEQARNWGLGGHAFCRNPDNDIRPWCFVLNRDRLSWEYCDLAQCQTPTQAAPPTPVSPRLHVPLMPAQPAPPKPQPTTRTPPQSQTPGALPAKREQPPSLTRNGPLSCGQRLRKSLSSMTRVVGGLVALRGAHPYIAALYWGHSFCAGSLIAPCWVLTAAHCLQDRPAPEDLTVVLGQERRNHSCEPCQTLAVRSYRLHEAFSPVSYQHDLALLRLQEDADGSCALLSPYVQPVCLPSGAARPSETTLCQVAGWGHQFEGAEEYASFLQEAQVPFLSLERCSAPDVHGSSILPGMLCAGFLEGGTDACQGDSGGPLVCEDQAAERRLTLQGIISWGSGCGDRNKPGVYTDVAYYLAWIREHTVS

[9] = test system: INS1; test: INS-1E survival protection against cytokine death – cell-based, luminescence, retest, dose response (AID 449756); format: functional; conditions: Rattus norvegicus;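 also: cell death triggered by IL-1 beta plus TNF-alpha plus IFN-gamma mixture; protective hits raise ATP signal compared with cytokine alone wells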
[10] = molecular target: T5, Protein RecA (Mycobacterium tuberculosis, UniProt P9WHJ3); test: Fluorescence Cell-Free Homogeneous Dose Retest to Identify Inhibitors of RecA-Intein Splicing Activity. [Related pubchem assays (depositor defined):AID2097, AID2223, AID489010, AID492950]; format: functional
T5 sequence (P9WHJ3 whole entry): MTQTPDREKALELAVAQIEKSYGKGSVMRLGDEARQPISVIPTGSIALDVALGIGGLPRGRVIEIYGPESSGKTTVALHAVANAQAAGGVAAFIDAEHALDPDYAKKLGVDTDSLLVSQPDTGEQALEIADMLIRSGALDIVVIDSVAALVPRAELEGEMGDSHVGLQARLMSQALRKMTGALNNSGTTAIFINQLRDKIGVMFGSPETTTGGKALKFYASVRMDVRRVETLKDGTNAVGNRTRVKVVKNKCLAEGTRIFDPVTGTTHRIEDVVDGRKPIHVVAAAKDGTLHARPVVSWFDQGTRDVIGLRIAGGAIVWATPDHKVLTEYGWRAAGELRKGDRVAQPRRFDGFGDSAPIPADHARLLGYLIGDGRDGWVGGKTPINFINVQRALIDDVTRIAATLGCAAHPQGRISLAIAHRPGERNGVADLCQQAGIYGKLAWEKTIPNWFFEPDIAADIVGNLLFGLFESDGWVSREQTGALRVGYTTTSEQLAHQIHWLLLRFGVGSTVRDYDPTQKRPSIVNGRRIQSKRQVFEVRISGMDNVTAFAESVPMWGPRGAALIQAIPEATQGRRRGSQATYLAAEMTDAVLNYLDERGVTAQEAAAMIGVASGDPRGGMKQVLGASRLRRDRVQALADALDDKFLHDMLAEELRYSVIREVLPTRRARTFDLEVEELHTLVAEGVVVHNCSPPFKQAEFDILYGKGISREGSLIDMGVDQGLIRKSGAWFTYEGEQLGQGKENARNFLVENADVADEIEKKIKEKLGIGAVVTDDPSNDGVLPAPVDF

[11] = NIH3T3 cell viability loss – ATP luminescence, mouse fibroblasts, counter-screen, dose response (AID 2010); format: functional, cell-based;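 also: cells exposed to compound for about 90 hours before reading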
[12] = Luminescence Cell-Based Dose Retest to Confirm Inhibitors of Cancer Stem Cells. [Related pubchem assays (depositor defined):AID2717, AID2721]; format: functional; conditions: Homo sapiens
[13] = molecular target: T6, Replicative DNA helicase DnaB (Mycobacterium tuberculosis, UniProt P9WMR3); test: DnaB intein splicing inhibitors, dose response, biochemical, cell-free fluorescence (AID 449749); format: functional
T6 sequence (P9WMR3 whole entry): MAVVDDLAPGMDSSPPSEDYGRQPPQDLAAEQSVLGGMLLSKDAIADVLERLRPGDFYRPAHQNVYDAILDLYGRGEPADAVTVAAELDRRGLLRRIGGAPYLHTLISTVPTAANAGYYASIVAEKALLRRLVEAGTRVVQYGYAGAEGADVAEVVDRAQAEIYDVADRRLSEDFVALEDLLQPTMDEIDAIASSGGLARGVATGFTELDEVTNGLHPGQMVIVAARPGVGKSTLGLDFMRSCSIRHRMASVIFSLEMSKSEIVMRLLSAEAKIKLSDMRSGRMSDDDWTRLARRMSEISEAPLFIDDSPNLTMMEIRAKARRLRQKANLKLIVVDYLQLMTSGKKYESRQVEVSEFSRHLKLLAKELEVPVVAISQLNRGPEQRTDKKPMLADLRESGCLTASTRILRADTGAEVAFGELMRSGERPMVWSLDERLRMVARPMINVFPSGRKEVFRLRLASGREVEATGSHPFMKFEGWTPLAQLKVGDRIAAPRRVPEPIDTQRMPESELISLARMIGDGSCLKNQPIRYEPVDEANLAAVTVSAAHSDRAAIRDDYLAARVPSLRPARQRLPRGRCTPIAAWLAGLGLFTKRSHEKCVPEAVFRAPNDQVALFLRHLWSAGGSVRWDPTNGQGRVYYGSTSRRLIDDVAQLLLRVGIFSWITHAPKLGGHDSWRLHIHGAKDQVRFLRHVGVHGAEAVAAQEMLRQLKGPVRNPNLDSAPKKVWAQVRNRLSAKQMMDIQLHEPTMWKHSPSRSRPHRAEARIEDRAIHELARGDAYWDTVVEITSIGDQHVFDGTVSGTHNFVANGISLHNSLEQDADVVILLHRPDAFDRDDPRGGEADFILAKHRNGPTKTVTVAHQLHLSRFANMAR

[14] = Trypanosoma cruzi growth suppression in host cells – NIH3T3 host cells, beta-gal luminescence, confirmation (AID 2044); format: functional, cell-based;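 also: intracellular parasites grown in NIH/3T3 mouse fibroblasts as host cells; luminescent beta-galactosidase reporter signal from transgenic T. cruzi replicating inside host cells; inhibitors lower the luminescence signal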

For `CCN(CC)CCCNC(=O)C1c2ccccc2C(=O)N(C)C1c1ccc(OC)cc1` (stereo unspecified), the EC50 [1] was > 350 µM (not active) and the EC50 [2] was > 350 µM (not active).
For `CCOC(=O)c1c(S(=O)(=O)N2CCCC2)c(C)n(C)c1C`, the EC50 [1] was > 350 µM (not active) and the EC50 [2] was > 350 µM (not active).
In the case of `O=C(CC1Sc2ncnn2C1=O)Nc1ccc(Br)cc1` (stereo unspecified), the IC50 [3] is reported as 55.8 µM (active).
For `COc1ccc(Cc2nc3ccc(S(=O)(=O)N4CCOCC4)cc3[nH]2)cc1`, the IC50 [4] was > 50 µM (not active).
For `COC(=O)c1ccc(CSc2nc3c(cnn3-c3ccc(C)c(C)c3)c(=O)[nH]2)o1`, the IC50 [4] was 38.5 µM (not active).
For `CC(C)CC(=O)Nc1ccc(C(=O)COc2ccc(-c3nnco3)cc2)cc1`, the IC50 [4] was 22.3 µM (active).
With `CCOC(=S)SCC(=O)Nc1nc(C)c(C)s1` the EC50 [5] was 7.81 µM (active).
With `COc1ccccc1CNC(=O)c1csc(Cc2ccc(Cl)cc2)n1` the EC50 [5] was > 260 µM (inactive).
For `C[C@H](CO)N1C[C@H](C)[C@H](CN(C)S(=O)(=O)c2ccc(Cl)cc2)Oc2c(NC(=O)CCCCCC(=O)Nc3ccccc3N)cccc2C1=O`, the AC50 [6] was 1.95 µM (active).
For `O=S1(=O)c2cccc3cccc(c23)N1Cc1nnc(-c2ccccc2Br)o1`, the EC50 [5] was 34.6 µM (active).
In the case of `CN(C)CCCOc1ccc(/C=N/NC(=O)CCCCCCC(=O)Nc2ccccc2O)cc1`, the AC50 [6] is reported as 1.29 µM (active).
With `CCC(CC)COC(=O)C1=C(C)NC(=O)NC1c1cc(OC)ccc1OC` (stereo unspecified) the EC50 [5] was > 260 µM (inactive).
For `CCN(Cc1ccccc1)C(=O)C1CCN(C/C(C)=C/c2ccccc2)CC1`, the EC50 [5] was > 260 µM (inactive).
For `C[C@@H]1CN([C@H](C)CO)C(=O)Cc2cc(NC(=O)CCCCCC(=O)Nc3ccccc3N)ccc2O[C@@H]1CN(C)Cc1ccc(Cl)c(Cl)c1`, the AC50 [6] was 4.01 µM (active).
In the case of `COc1ccc(N(CN2C(=O)C3C4C=CC(C4)C3C2=O)C(=O)c2ccco2)cc1` (stereo unspecified), the IC50 [4] is reported as > 50 µM (not active).
For `COc1ccc(NC(=O)CSc2nc3c(sc4ccccc43)c(=O)n2CCCN2CCCC2)cc1`, the IC50 [7] was > 20 µM (inactive).
For `COc1ccc(N(C(=O)c2snc(C(N)=O)c2N)C(C(=O)NC2CCCCC2)c2ccc(C)o2)cc1` (stereo unspecified), the IC50 [7] was > 20 µM (inactive).
For `C[C@@H]1CN([C@@H](C)CO)C(=O)c2cccc(NS(=O)(=O)c3cccs3)c2O[C@H]1CN(C)Cc1ccc(C(=O)Nc2ccccc2N)cc1`, the AC50 [6] was 5.68 µM (active).
With `CCN1C(=O)c2[nH]nc(C(=O)OC)c2C1=O` the IC50 [8] was > 50 µM (inactive).
With `CC/N=C1\SC(CC(=O)NC(C)C)C(=O)N1CC` (stereo unspecified) the EC50 [1] was > 350 µM (not active) and the EC50 [2] was > 350 µM (not active).
In the case of `C[C@@H]1CCCCO[C@@H](CN(C)S(=O)(=O)c2cccs2)[C@@H](C)CN([C@H](C)CO)C(=O)c2cc(NC(=O)Nc3ccc(C(F)(F)F)cc3)ccc2O1`, the AC50 [6] is reported as 4.19 µM (active).
In the case of `Cc1cc(C)n(C(=O)CNc2cccc(Cl)c2C)n1`, the IC50 [8] is reported as > 50 µM (inactive).
In the case of `Cc1ccc(NC2CCCN(C(=O)C3CCCCC3)C2)cc1C` (stereo unspecified), the EC50 [1] is reported as > 350 µM (not active) and the EC50 [2] is reported as > 350 µM (not active).
For `Cc1ccc(C(=O)NCCN2CCNC2=O)cc1`, the IC50 [8] was > 50 µM (inactive).
With `CCCCCc1cc(=O)oc2c(C(CCN3CCCC(C)C3)c3ccc(OC)cc3)c(OC)cc(OC)c12` (stereo unspecified) the AC50 [9] was 7.46 µM (active), the EC50 [10] was 12 µM (active) and the EC50 [11] was 7.56 µM (active). For the same compound, the AC50 [12] was 3.25 µM (active), the AC50 [13] was 4.78 µM (active) and the EC50 [14] was 1.6 µM (active). The IC50 [7] was > 20 µM (inactive).
With `O=C(C1CCC(CNS(=O)(=O)c2cccc3nsnc23)CC1)N1CCN(c2ccccn2)CC1` (stereo unspecified) the EC50 [5] was > 260 µM (inactive).
